No end group written: not given here.

Experimental findings from patent US6624140B1, “Synthetic peptides with antimicrobial and endotoxin neutralizing properties for management of the sepsis syndrome” (Academisch Ziekenhuis Bij de Universiteit van Amsterdam …, priority 1997, dated 2003) are described below.

The nature of test [1]: Solid-state Lipid A binding ELISA microplate assay. Set-up: species or system Escherichia coli. Particulars: for apparent binding affinity Ka for Lipid A: biotinylated derivatives, immobilized E. coli D31m4 Lipid A, Scatchard plot. On the procedure:
FIG. 3. Lipid A binding affinity of the synthetic peptides. Plastic ELISA microtiter plates were coated with purified E. coli D31m4 Lipid A at 1 μg/ml. Incubations were for 20 min with the indicated concentrations of synthetic peptides BP1, BP2 or BP2.1 or control peptide BPI(85-102) followed by streptavidin-HRP at a dilution of 1 in 20 000. Washing steps to remove excess peptide or streptavidin were with 50 mM Tris buffer pH 7.4 containing 0.05% (v/v) Tween 20. Development was with TMB substrate for 10 min. The optical density (O.D) at 450 nm was measured with a microplate reader and values were corrected for non-specific binding which was generally between 5 and 10%. The plotted values are the corrected means of triplicate experiments.
(§1) Double-immunodiffusion of the peptides of the invention against ‘rough’ R-type E. coli D31m4 Re-LPS (List Biological Laboratories Inc., Calif.) or the structurally more complex ‘smooth’ S-type E. coli 0111:B4 LPS (Sigma Chemical Co., Rockford, Ill.) was performed in 0.8% (w/v) agarose containing 50 mM Tris and 0.1% (w/v) Triton X100, pH 7.5. for 16 h at 20° C. PmB and BPI(85-102) were included as control compounds for comparative purposes. The microprecipitates formed were visualized by Coommassie brilliant blue staining. […] Since the amount of precipitate formed is a function of valency, the peptides of the invention appear to be capable of a high degree of intermolecular binding of LPS molecules via the Lipid A moieties. […] A turbidity assay was employed for a direct comparison of the endotoxin-binding activity or avidity of selected synthetic peptides according to the invention using the ‘rough’ serotypes E. coli Re or Rc (J5) LPS. PmB and BPI(85-102) were included as control compounds for comparative purposes. The degree of precipitation of endotoxin by the synthetic peptides according to the invention was determined by measurement of the optical density of insoluble complexes formed at 340 nm (FIG. 2). In most instances optimal complexation of Re or J5 LPS by the synthetic peptides of the invention was evident at a molar ratio of peptide to endotoxin of 1 to 2. The control BPI(85-102) peptide was required at a 4-fold molar excess for approximately the same degree of complexation. […] There was no significant difference between complexation of Re or the structurally more complex J5-LPS by the synthetic peptides. […] The Lipid A binding affinity of the synthetic peptides were directly compared in a solid-state endotoxin-binding assay. Binding characteristics of biotinylated derivatives of the synthetic peptides BP1, BP2, BP2.1 and the control peptide BPI(85-102) were determined on ELISA microtiter plates coated with E. coli D31m4 Lipid A. Specific binding of the biotinylated peptides to the immobilized Lipid A was determined by development with Streptavidin-HRP and 3, 5, 3′, 5′ tetra-methylbenzidine (TMB) substrate and expressed as the corrected optical density at 450 nm. […] The affinity of the novel synthetic peptide BP2 for endotoxin of increasing complexity as well as the effect of plasma on binding was examined with the use of the ELISA microplate assay.

A short description of test [2]: Turbidity assay of endotoxin complexation. The class given is binding, Escherichia coli. Particulars: for avidity order (degree of insoluble peptide-endotoxin complex formation): 2-fold molar excess of synthetic peptide. On the procedure: FIG. 2. Endotoxin complexation activity of the synthetic peptides. Peptides at concentrations of 100 to 600 μg/ml were incubated with E. coli D31m4 Re or J5 LPS at 100 μg/ml in a total volume of 100 μl pyrogen-free phosphate buffered saline (PBS) in plastic ELISA microtiter plates for 30 min at 23° C. The turbidity produced by the insoluble peptide-endotoxin complexes was measured at 340 nm. The values represent the mean of three determinations and were corrected for controls containing the same concentrations of endotoxin or peptide.
as §1

Test [3] concerns Escherichia coli serotype 0111:B4. In words: Bactericidal activity in liquid culture, E. coli 0111:B4. The class given is cell-based. Particulars: for effect on cell-density of Gram-negative bacterial cultures: in words; for % bacteria killed: 10^7 E. coli 0111:B4 bacteria/ml LB medium at 37° C., concentration effective dose 3 (M^−6). On the procedure: FIGS. 1A and 1B. The effect of synthetic peptides on the survival of E. coli 0111:B4 (panel A) or S. aureus (panel B). Logarithmically growing bacterial cells at a density of 10^7 cells/ml in Luria-Bertani (LB) medium were incubated with synthetic peptides at concentrations of 3, 5 and 7 μg/ml (1, 2 and 3 μM) at 37° C. for 1 h and the residual cell density expressed as a percentage of the value obtained from bacterial cultures without added peptides.
A peptide encompassing a selected LPS-binding domain from a well characterized human antiendotoxin protein, known as bactericidal/permeability increasing protein (BPI), from amino acids 85 to 102, denoted as BPI(85-102), was included for a direct comparison of the efficacy of the endotoxin-binding domain of a naturally occurring protein and the synthetic peptides of the invention. The amino acid sequence of the BPI(85-102) peptide is:
The BPI(85-102) reference peptide was synthesized as previously described for peptides of the invention and provided with a C-terminal Cys residue for the purpose of biotinylation as previously described. […] Incubation of various concentrations of the synthetic peptides according to the invention for a limited time period on the survival of both types of bacteria again illustrated their potent anti-microbial activity as opposed to that of the BPI(85-102) peptide (FIG. 1) with the sequence corresponding to that of the potential LPS binding domain of the native BPI protein. This is indicative of a broad specificity of the synthetic peptides, in keeping with the general bactericidal properties of this class of linear amphipathic α-helical peptides. […] The B2 residue in the N-terminal repetitive sequence element in each instance, instead of an aromatic amino acid residue, as specified by the formula of the invention, was replaced with an Ala residue and the hydrophobic (C2)n element made hydrophilic by substitution with Lys and Cys residues.

For “GKWKLFKKAFKKFLKILAC-OH [BP2, Gly-Lys-Trp-Lys-Leu-Phe-Lys-Lys-Ala-Phe-Lys-Lys-Phe-Leu-Lys-Ile-Leu-Ala-Cys]”, in test [1], the “difference in binding affinity for Lipid A compared with BPI(85-102)” value was around 10 fold, the “fold higher affinity for Lipid A compared with Polymyxin B” value is “approximately 20 fold” and the “apparent binding affinity Ka for Lipid A” value was determined as 1.9e+08 M⁻¹. Also, the “avidity order (degree of insoluble peptide-endotoxin complex formation)” value (shortened to “avidity order”) in test [2] is reported as “BP2.1>BP2.2>BP2>BP1>PmB >BPI(85-102)”. In test [3], the “effect on cell-density of Gram-negative bacterial cultures” value (shortened to “effect on cell-density”) is “dose-dependent reduction”.

As for “Ile-Lys-Ile-Ser-Gly-Lys-Trp-Lys-Ala-Gin-Lys-Arg-Phe-Leu-Lys-Met-Ser-Gly-(Cys) (IKISGKWKAQKRFLKMSGC; listed as Homo sapiens) [BPI(85-102), reference compound]”, the “apparent binding affinity Ka for Lipid A” value in test [1] is 2e+07 M⁻¹. Further, the “avidity order” value in test [2] was “BP2.1>BP2.2>BP2>BP1>PmB >BPI(85-102)”. In test [2] (Re or J5 LPS), the “molar excess required for approximately the same degree of complexation” value came to 4 fold. In test [3], the “% bacteria killed” value is given as 31% and the “effect on cell-density” value was “slight effect”.

As for GRLRKKWKAFKKFLKILAC [BP1], in test [1], the “difference in binding affinity for Lipid A compared with BPI(85-102)” value is listed as “approximately 5 fold” and the “apparent binding affinity Ka for Lipid A” value is 9e+07 M⁻¹. Further, in test [2], the “avidity order” value was “BP2.1>BP2.2>BP2>BP1>PmB >BPI(85-102)”. Moreover, in test [3], the “% bacteria killed” value stood at 88% and the “effect on cell-density” value is “dose-dependent reduction”.
